pIC50: −log10 of the molar value.
Each compound was assayed against CDK2/Cyclin E1 (Homo sapiens (Human), UniProt P24941) (assay: CDK2/Cyclin E1 HTRF enzyme activity assay (Example A)). Settings: 1 mM ATP.
Format: biochemical
Description: Assays were conducted in white 384-well polystyrene plates in a final reaction volume of 8 μL. […] HTRF signals were read after 1 hour at room temperature on a PHERAstar FS plate reader (BMG Labtech). Data was analyzed with IDBS XLFit and GraphPad Prism 5.0 software using a three or four parameter dose response curve to determine IC50 for each compound.

pIC50, ≥ 7.30:
Cn1cnc(S(=O)(=O)N2CCC(Nc3ncc(C(F)(F)F)c(-c4cn(-c5cc(N)ncc5F)cn4)n3)CC2)c1 [Example 6, 4-(1-(2-Amino-5-fluoropyridin-4-yl)-1H-imidazol-4-yl)-N-(1-((1-methyl-1H-imidazol-4-yl)sulfonyl)piperidin-4-yl)-5-(trifluoromethyl)pyrimidin-2-amine]
CN(C)CCc1ccc(-n2cnc(-c3nc(NC4CCN(S(C)(=O)=O)CC4)ncc3C(F)(F)F)c2)c(C#N)c1 [Example 433, 5-(2-(Dimethylamino)ethyl)-2-(4-(2-((1-(methylsulfonyl)piperidin-4-yl)amino)-5-(trifluoromethyl)pyrimidin-4-yl)-1H-imidazol-1-yl)benzonitrile]
C[C@@H]1CN(S(C)(=O)=O)CC[C@@H]1Nc1ncc(C(F)(F)F)c(-c2cn(-c3ccc(CN4CCC4)cc3Cl)cn2)n1 [Example 219, 4-(1-(4-(Azetidin-1-ylmethyl)-2-chloro-phenyl)-1H-imidazol-4-yl)-N-((3R,4S)-3-methyl-1-(methyl-sulfonyl)piperidin-4-yl)-5-(trifluoro-methyl)pyrimidin-2-amine]
CS(=O)(=O)N1CCC(Nc2ncc(C(F)(F)F)c(-c3cn(-c4ccc(CN5CCN6CCCC6C5)cc4Cl)cn3)n2)CC1 (centres unmarked) [Example 212, 4-(1-(2-Chloro-4-((hexahydropyrrolo-[1,2-a]pyrazin-2(1H)-yl)methyl)phenyl)-1H-imidazol-4-yl)-N-(1-(methylsulfonyl)-piperidin-4-yl)-5-(trifluoromethyl)-pyrimidin-2-amine]
CNCc1ccc(-n2cc(-c3nc(NC4CCN(S(C)(=O)=O)CC4)ncc3C#N)nc2C)c(Cl)c1 [Example 289, 4-(1-(2-Chloro-4-((methylamino)methyl)phenyl)-2-methyl-1H-imidazol-4-yl)-2-((1-(methylsulfonyl)piperidin-4-yl)amino)pyrimidine-5-carbonitrile]
CCN1CC(c2ccc(-n3cc(-c4nc(NC5CCN(S(C)(=O)=O)CC5)ncc4C(F)(F)F)nc3C)c(F)c2)C1 [Example 418, 4-(1-(4-(1-Ethylazetidin-3-yl)-2-fluorophenyl)-2-methyl-1H-imidazol-4-yl)-N-(1-(methylsulfonyl)piperidin-4-yl)-5-(trifluoromethyl)pyrimidin-2-amine]
CNCc1cc(F)c(-n2cnc(-c3nc(NC4CCN(S(C)(=O)=O)CC4)ncc3C(F)(F)F)c2)c(F)c1 [Example 350, 4-(1-(2,6-Difluoro-4-((methylamino)methyl)phenyl)-1H-imidazol-4-yl)-N-(1-(methylsulfonyl)piperidin-4-yl)-5-(trifluoromethyl)pyrimidin-2-amine]
CN1CCN(Cc2ccc(-n3cnc(-c4nc(NC5CCN(S(C)(=O)=O)CC5)ncc4C(F)(F)F)c3)c(C#N)c2)CC1 [Example 344, 5-((4-Methylpiperazin-1-yl)methyl)-2-(4-(2-((1-(methylsulfonyl)piperidin-4-yl)amino)-5-(trifluoromethyl)pyrimidin-4-yl)-1H-imidazol-1-yl)benzonitrile]
CS(=O)(=O)N1CCC(Nc2ncc(C(F)(F)F)c(-c3cn(-c4ccc(CN5CC[C@@H](O)C5)cc4C#N)cn3)n2)CC1 [Example 342, (R)-5-((3-Hydroxypyrrolidin-1-yl)methyl)-2-(4-(2-((1-(methylsulfonyl)piperidin-4-yl)amino)-5-(trifluoromethyl)pyrimidin-4-yl)-1H-imidazol-1-yl)benzonitrile]
CS(=O)(=O)N1CCC(Nc2ncc(C(F)(F)F)c(-c3cn(-c4cccc(F)c4Cl)cn3)n2)CC1 [Example 65, 4-(1-(2-Chloro-3-fluorophenyl)-1H-imidazol-4-yl)-N-(1-(methylsulfonyl)piperidin-4-yl)-5-(trifluoromethyl)pyrimidin-2-amine]
CS(=O)(=O)N1CCC(Nc2ncc(C(F)(F)F)c(-c3cn(-c4cccc(CN5CC(C#N)C5)c4C(F)(F)F)cn3)n2)CC1 [Example 470, 1-(3-(4-(2-((1-(Methylsulfonyl)piperidin-4-yl)amino)-5-(trifluoromethyl)pyrimidin-4-yl)-1H-imidazol-1-yl)-2-(trifluoromethyl)benzyl)azetidine-3-carbonitrile]
CS(=O)(=O)N1CCC(Nc2ncc(C(F)(F)F)c(-c3cn(-c4ccccc4CO)cn3)n2)CC1 [Example 237, (2-(4-(2-((1-(Methylsulfonyl)piperidin-4-yl)amino)-5-(trifluoromethyl)pyrimidin-4-yl)-1H-imidazol-1-yl)phenyl)methanol]
CS(=O)(=O)N1CCC(Nc2ncc(C(F)(F)F)c(-c3cn(-c4ccc(CN5CCC5)c(F)c4Cl)cn3)n2)CC1 [Example 269, 4-(1-(4-(Azetidin-1-ylmethyl)-2-chloro-3-fluorophenyl)-1H-imidazol-4-yl)-N-(1-(methylsulfonyl)piperidin-4-yl)-5-(trifluoromethyl)pyrimidin-2-amine]
O=S(=O)(C1CC1)N1CCC(Nc2ncc(C(F)(F)F)c(-c3cn(-c4ccc(CN5CCC5)cc4Cl)cn3)n2)CC1 [Example 228, 4-(1-(4-(Azetidin-1-ylmethyl)-2-chlorophenyl)-1H-imidazol-4-yl)-N-(1-(cyclopropylsulfonyl)piperidin-4-yl)-5-(trifluoromethyl)pyrimidin-2-amine]
CC(O)c1cccc(-n2cnc(-c3nc(NC4CCN(S(C)(=O)=O)CC4)ncc3C(F)(F)F)c2)c1Cl (centres unmarked) [Example 83, 1-(2-Chloro-3-(4-(2-((1-(methylsulfonyl)piperidin-4-yl)amino)-5-(trifluoromethyl)pyrimidin-4-yl)-1H-imidazol-1-yl)phenyl)ethan-1-ol]
O=S(=O)(C1CC1)N1CC[C@H](Nc2ncc(C(F)(F)F)c(-c3cn(CC(F)F)cn3)n2)[C@H](F)C1 [Example 329, N-((3R,4S)-1-(Cyclopropylsulfonyl)-3-fluoropiperidin-4-yl)-4-(1-(2,2-difluoroethyl)-1H-imidazol-4-yl)-5-(trifluoromethyl)pyrimidin-2-amine]
CC1(O)CN(Cc2ccc(-n3cnc(-c4nc(NC5CCN(S(C)(=O)=O)CC5)ncc4C(F)(F)F)c3)c(C(F)(F)F)c2)C1 [Example 449, 3-Methyl-1-(4-(4-(2-((1-(methylsulfonyl)piperidin-4-yl)amino)-5-(trifluoromethyl)pyrimidin-4-yl)-1H-imidazol-1-yl)-3-(trifluoromethyl)benzyl)azetidin-3-ol]
CS(=O)(=O)N1CCC(Nc2ncc(C(F)(F)F)c(-c3cn(-c4cccc(C#N)c4CO)cn3)n2)CC1 [Example 232, 2-(Hydroxymethyl)-3-(4-(2-((1-(methylsulfonyl)piperidin-4-yl)amino)-5-(trifluoromethyl)pyrimidin-4-yl)-1H-imidazol-1-yl)benzonitrile]
CS(=O)(=O)N1CCC(Nc2ncc(C#N)c(-c3cn(CC(F)F)cn3)n2)CC1 [Example 26, 4-(1-(2,2-Difluoroethyl)-1H-imidazol-4-yl)-2-((1-(methylsulfonyl)piperidin-4-yl)amino)pyrimidine-5-carbonitrile]
CNCc1ccc(-n2cc(-c3nc(N[C@H]4CCN(S(C)(=O)=O)C[C@H]4F)ncc3C(F)(F)F)nc2C)c(F)c1 [Example 287, N-((3R,4S)-3-Fluoro-1-(methylsulfonyl)piperidin-4-yl)-4-(1-(2-fluoro-4-((methylamino)methyl)phenyl)-2-methyl-1H-imidazol-4-yl)-5-(trifluoromethyl)pyrimidin-2-amine]
CS(=O)(=O)N1CCC(Nc2ncc(C(F)(F)F)c(-c3cn(-c4ccc(OC(F)F)cc4C#N)cn3)n2)CC1 [Example 126, 5-(Difluoromethoxy)-2-(4-(2-((1-(methylsulfonyl)piperidin-4-yl)amino)-5-(trifluoromethyl)pyrimidin-4-yl)-1H-imidazol-1-yl)benzonitrile]
Cc1nc(-c2nc(NC3CCN(S(C)(=O)=O)CC3)ncc2C(F)(F)F)cn1-c1ccc(N2CCC(N3CCC(O)C3)CC2)cc1F (centres unmarked) [Example 455, 1-(1-(3-Fluoro-4-(2-methyl-4-(2-((1-(methylsulfonyl)piperidin-4-yl)amino)-5-(trifluoromethyl)pyrimidin-4-yl)-1H-imidazol-1-yl)phenyl)piperidin-4-yl)pyrrolidin-3-ol]
CS(=O)(=O)N1CCC(Nc2ncc(C(F)(F)F)c(-c3cn(-c4cccc(F)c4C#N)cn3)n2)CC1 [Example 56, 2-Fluoro-6-(4-(2-((1-(methylsulfonyl)piperidin-4-yl)amino)-5-(trifluoromethyl)pyrimidin-4-yl)-1H-imidazol-1-yl)benzonitrile]
Cc1cc(C#N)ncc1-n1cnc(-c2nc(NC3CCN(S(C)(=O)=O)CC3)ncc2C(F)(F)F)c1 [Example 168, 4-Methyl-5-(4-(2-((1-(methylsulfonyl)piperidin-4-yl)amino)-5-(trifluoromethyl)pyrimidin-4-yl)-1H-imidazol-1-yl)picolinonitrile]
Cc1nc(-c2nc(NC3CCN(S(C)(=O)=O)CC3)ncc2C(F)(F)F)cn1-c1ccc(C2CN(CC3(O)CC3)C2)cc1F [Example 422, 1-((3-(3-Fluoro-4-(2-methyl-4-(2-((1-(methylsulfonyl)piperidin-4-yl)amino)-5-(trifluoromethyl)pyrimidin-4-yl)-1H-imidazol-1-yl)phenyl)azetidin-1-yl)methyl)cyclopropan-1-ol]
CCNCc1cc(F)c(-n2cnc(-c3nc(N[C@@H]4CCN(S(C)(=O)=O)C[C@H]4F)ncc3C(F)(F)F)c2)c(Cl)c1 [Example 406, 4-(1-(2-Chloro-4-((ethylamino)methyl)-6-fluorophenyl)-1H-imidazol-4-yl)-N-((3R,4R)-3-fluoro-1-(methylsulfonyl)piperidin-4-yl)-5-(trifluoromethyl)pyrimidin-2-amine]
